Experimental data as given in patent publication US10160772B2, “5,6-dihydro-4H-benzo[b]thieno-[2,3-d]azepine derivatives” (PULMOCIDE LIMITED, priority 2014, dated 2018).

What was measured:
Assay type in all cases: cell-based
RSV A2 strain = test: RSV A2-induced CPE in Hep2 cells; conditions: human respiratory syncytial virus, Hep2 cells; for IC50: HEp-2, 120 h, RSV A2 1 MOI, 5 days, resazurin, read-out: RSV A2 CPE IC50
Experimental: (§1) Biological Testing: Experimental Methods Assessment of RSV Induced CPE in Hep2 Cells
(§2) Hep2 cells were seeded (10^3/well/50 μL) in 384-well plates (Catalogue number 353962, BD Falcon, Oxford, UK) in 5% serum free-DMEM containing 2 mM L-glutamine and 1 mM sodium pyruvate one day before infection. RSV A2 strain (#0709161v, NCPV, Public Health England, Wiltshire) or RSV B Washington strain (VR-1580, ATCC, Manassas, Va. 20108) virus solutions were prepared in serum free-DMEM with 2 mM L-glutamine and 1 mM sodium pyruvate, and then added (50 μL/well) to achieve a final virus concentration of 1 MOI for RSV A and 0.1MOI for RSV B. Simultaneously test compounds (0.5 μL DMSO solution) were added to 100 μL of Hep2 cell culture with virus solution to provide a final DMSO solution of 0.5%. Plates were incubated (37° C./5% CO2) for 5 days for studies using RSV A2 strain or 6 days for those using RSV B strain, and then resazurin sodium salt (5 μL of 0.03% solution; Sigma-Aldrich, Dorset, UK) was added to each well and the plate incubated for a further 6 hr (37° C. and 5% CO2). The fluorescence of each well [545 nm (excitation)/590 nm (emission)] was determined using a multi-scanner (Clariostar: BMG, Buckinghamshire, UK). The percentage inhibition for each well was calculated and the IC50, IC75 and IC90 values were calculated from the concentration-response curve generated for each test compound.

[1] = Cell viability: resazurin assay in Hep2 cells; conditions: human, 5 days incubation
Experimental: Cell Viability: Resazurin Assay Hep2 cells were seeded in 384-well plates (10^3/well/50 μL; BD Falcon Ref 353962) in FBS DMEM (5%, containing 2 mM L-glutamine and 1 mM sodium pyruvate) one day before experimentation. Serum-free DMEM (50 μL) was added to test wells while for control wells the media was removed and sterile water (100 μL) was added. Test compounds (0.5 μL DMSO solution) were added to give a final DMSO concentration of 0.5%. Hep2 cells were incubated with each test compound for 5 days (37° C./5% CO2 in 5% FBS) and then resazurin stock solution (5 μL; 0.03%) was added to each well and the plate incubated further for a further 6 hrs (37° C./5% CO2). The fluorescence of each well at 545 nm (excitation) and 590 nm (emission) was determined using a multi-scanner (Clariostar: BMG Labtech). The percentage loss of cell viability was calculated for each well relative to vehicle (0.5% DMSO) treatment. Where appropriate, a CC50 value was calculated from the concentration-response curve generated from the concentration-response curve for each test compound.

[2] = test system: RSV A2 F-protein expression; test: RSV A2 F-protein expression in BEAS2B bronchial epithelial cells; conditions: human respiratory syncytial virus, BEAS-2B, 72 h, read-out: RSV A2 F-protein IC50
Experimental: Assessment of RSV F Protein Expression in BEAS2B Bronchial Epithelial Cells
An early event which follows the infection of epithelial cells by RSV is the expression of RSV F-protein on the cells' surface. BEAS2B cells (SV40-immortalised human bronchial epithelial cell line) were grown in 96 well plates. Once more than 70% confluent, cells were infected with RSV A2 (#0709161v, NCPV, Public Health England, Wiltshire) at an MOI of 0.01 in clear RPMI-1640 medium (Life technologies, Paisley, UK) with 2% FBS (Life technologies, Paisley, UK), and incubated for 3 days (37° C./5% CO2).
Supernatant was aspirated and the cells were fixed with 4% formaldehyde (100 μL in PBS solution) for 20 min, washed 3 times with washing buffer (200 μL; PBS containing 0.05% Tween-20) and incubated with blocking solution (100 μL; 5% Marvel milk in PBS) for 1 hr. Cells were then washed with washing buffer (200 μL) and incubated for 1 hr at 37° C. with anti-RSV (2F7; mouse monoclonal, lot 160290, Cat. No. ab43812, Abcam plc, Cambridge, UK) F-fusion protein antibody (50 μL; prepared at a 1:1000 dilution in 5% milk/PBS-tween). After washing, cells were incubated with an HRP-conjugated anti-mouse IgG antibody (50 μL prepared at a 1:2000 dilution in 5% milk in PBS; lot 00095437, Cat. No. P0447, Dako UK Ltd, Cambridgeshire, UK) for 1 hr. Cells were washed twice with washing buffer and once with PBS. TMB substrate (100 μL; substrate reagent pack lot 320436, Cat. No. DY999, R&D Systems, Inc. Abingdon, UK) was then added and the reaction was stopped by the addition of aq sulfuric acid (50 μL; 2N). The resultant signal was determined colourimetrically (OD: 450 nm with a reference wavelength of 655 nm) in a microplate reader (Multiskan FC®, ThermoFisher Scientific). Cells were then washed and 1% crystal violet solution (50 μL; lot SLB4576, Cat. No. HT90132-1L, Sigma-Aldrich) was applied for 30 min. After washing with PBS (200 μL) 3 times, 1% SDS (100 μL) was added to each well, and plates were shaken lightly for 1 hr prior to reading the absorbance at 595 nm. The measured OD450-655 readings were corrected for cell number by dividing the OD450-655 by the OD595 readings. The percentage inhibition for each well was calculated and the IC50 value derived from the concentration-response curve generated for each test compound.

RSV B Washington strain = test: RSV B-induced CPE in Hep2 cells; conditions: human respiratory syncytial virus, Hep2 cells; for IC50: HEp-2, 144 h, RSV B Washington 0.1 MOI, 6 days, resazurin, read-out: RSV B CPE IC50; for inhibition at 1 µg/mL: HEp-2, at 1 μg/mL, read-out: RSV B CPE % Inhibition
Experimental: as §1, §2

| SMILES | IC50 (RSV A2 strain) [nM] | inhibition at 0.1 µg/mL (RSV A2 strain; HEp-2, at 0.1 μg/mL, read-out: RSV A2 CPE % Inhibition) [%] | CC50 at 5 days [1] [nM] | IC50 [2] [nM] | IC50 (RSV B Washington strain) [nM] | inhibition at 1 µg/mL (RSV B Washington strain) [%] | inhibition at 0.01 µg/mL (RSV A2 strain; HEp-2, at 0.01 μg/mL (footnote 2), read-out: RSV A2 CPE % Inhibition) [%] |
| --- | --- | --- | --- | --- | --- | --- | --- |
| N#Cc1cccc2nc(-c3cc4c(s3)-c3ccccc3N(C(=O)c3ccc(NC(=O)c5cccnc5N5CC6(CCOCC6)C5)cc3)CC4)[nH]c12 [Example 12, N-(4-(2-(7-cyano-1H-benzo[d]imidazol-2-yl)-5,6-dihydro-4H-benzo[b]thieno[2,3-d]azepine-6-carbonyl)phenyl)-2-(7-oxa-2-azaspiro[3.5]nonan-2-yl)nicotinamide] | 0.94 | 100 | > 14500 | 0.21 | 111 | 100 |  |
| Cc1cnc(N2CC3(CCOCC3)C2)c(C(=O)Nc2ccc(C(=O)N3CCc4cc(-c5nc6cccc(F)c6[nH]5)sc4-c4ccccc43)cc2)c1 [Example 14, N-(4-(2-(7-fluoro-1H-benzo[d]imidazol-2-yl)-5,6-dihydro-4H-benzo[b]thieno[2,3-d]azepine-6-carbonyl)phenyl)-5-methyl-2-(7-oxa-2-azaspiro[3.5]nonan-2-yl)nicotinamide] | 0.24 |  | > 14300 | 0.31 | 0.99 | 100 | 93 |
